# US20110009474A1, “SIRTUIN BASED METHODS AND COMPOSITIONS FOR TREATING BETA-CATENIN-RELATED CONDITIONS” (President and Fellows of Harvard College, priority 2007, published 2011)
# Test system: β-catenin transcriptional activity (pTOPFLASH reporter) in 293T cells
# Test: TOPFLASH β-catenin luciferase reporter assay in transfected 293T cells
# Assay type: cell-based, human
# Settings: NAM added eight hours after transfection, harvested 24 h post-transfection, normalized to Renilla luciferase, FIG. 4F
smiles,measurement,value
NC(=O)c1cccnc1 [nicotinamide],luciferase reporter activity (pTOPFLASH β-catenin reporter),increased luciferase reporter activity
